We go through 23 compounds from patent publication US9353107B2 (Aurigene Discovery Technologies Limited, priority 2012, dated 2016).

For this experiment, the target named is T1, recombinant human ALK enzyme (ALK WT) (Homo sapiens, UniProt Q9UM73).
T1 construct: purchased Carna Biosciences 08-518
In words: ALK WT cell free enzymatic assay (TR-FRET). Format: biochemical. The settings on record: 1 μM ATP; for IC50: 10 point dose response; for inhibition at 0.1 µM: compound at 100 nM; for inhibition at 0.1 µM / inhibition at 1 µM: 30 min pre-incubation; for inhibition at 1 µM: compound at 1 μM. The procedure, abridged: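 Read-out is TR-FRET (665 nm/615 nm ratio) using an Eu-labeled anti-phosphotyrosine antibody. Compound is pre-incubated 30 min with recombinant human ALK, then reacted 30 min with 1 μM ATP and 40 nM Poly GT substrate. Values are percent inhibition at 100 nM and 1 μM, plus IC50 from 10-point variable-slope regression.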

T1 sequence (Q9UM73 1058-1620 limits assumed): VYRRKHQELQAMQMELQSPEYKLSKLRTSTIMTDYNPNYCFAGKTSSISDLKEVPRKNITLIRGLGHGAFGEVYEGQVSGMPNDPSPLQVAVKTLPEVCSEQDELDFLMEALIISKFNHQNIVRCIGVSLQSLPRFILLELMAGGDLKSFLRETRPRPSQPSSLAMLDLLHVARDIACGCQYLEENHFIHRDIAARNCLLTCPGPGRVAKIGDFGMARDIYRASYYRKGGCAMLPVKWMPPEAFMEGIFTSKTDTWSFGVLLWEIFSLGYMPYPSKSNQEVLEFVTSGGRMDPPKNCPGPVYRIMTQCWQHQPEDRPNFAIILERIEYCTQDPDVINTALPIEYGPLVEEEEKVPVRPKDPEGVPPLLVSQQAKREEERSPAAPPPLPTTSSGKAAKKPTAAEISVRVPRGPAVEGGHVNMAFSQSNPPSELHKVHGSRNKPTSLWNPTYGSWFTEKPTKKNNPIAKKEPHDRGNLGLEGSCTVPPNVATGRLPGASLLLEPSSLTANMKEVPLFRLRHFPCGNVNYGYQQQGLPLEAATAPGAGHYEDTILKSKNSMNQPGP

On to `NC(=O)CN1CCN(c2ccc(-c3cnc4[nH]cc(-c5cnn(Cc6cc(F)cc(F)c6)c5)c4c3)cn2)CC1` [Example 136, 2-(4-(5-(3-(1-(3,5-difluorobenzyl)-1H-pyrazol-4-yl)-1H-pyrrolo[2,3-b]pyridin-5-yl)pyridin-2-yl)piperazin-1-yl)acetamide], for which the IC50 was less than 50 nM, the inhibition at 0.1 µM was determined as 97% and the inhibition at 1 µM is 99%.

`CN1CCN(c2ccc(-c3cnc4[nH]cc(-c5cnn(Cc6cccc(F)c6)c5)c4c3)cn2)CC1` [Example 137, 3-(1-(3-fluorobenzyl)-1H-pyrazol-4-yl)-5-(6-(4-methylpiperazin-1-yl)pyridin-3-yl)-1H-pyrrolo[2,3-b]pyridine]: the IC50 is less than 50 nM, the inhibition at 0.1 µM turned out to be 99% and the inhibition at 1 µM came to 100%.

For `C[C@H](O)CN1CCN(c2ccc(-c3cnc4[nH]cc(-c5cnn(Cc6cccc(F)c6)c5)c4c3)cn2)CC1` [Example 138, (S)-1-(4-(5-(3-(1-(3-fluorobenzyl)-1H-pyrazol-4-yl)-1H-pyrrolo[2,3-b]pyridin-5-yl)pyridin-2-yl)piperazin-1-yl)propan-2-ol], the IC50 was less than 50 nM, the inhibition at 0.1 µM was found to be 100% and the inhibition at 1 µM stood at 100%.

With `NC(=O)CN1CCN(c2ccc(-c3cnc4[nH]cc(-c5cnn(Cc6cccc(F)c6)c5)c4c3)cn2)CC1` [Example 139, 2-(4-(5-(3-(1-(3-fluorobenzyl)-1H-pyrazol-4-yl)-1H-pyrrolo[2,3-b]pyridin-5-yl)pyridin-2-yl)piperazin-1-yl)acetamide], the IC50 is less than 50 nM, the inhibition at 0.1 µM is 99% and the inhibition at 1 µM is 100%.

Consider `c1ccc(CCn2cc(-c3c[nH]c4ncc(-c5ccc(N6CCNCC6)nc5)cc34)cn2)cc1` [Example 140, 3-(1-phenethyl-1H-pyrazol-4-yl)-5-(6-(piperazin-1-yl)pyridin-3-yl)-1H-pyrrolo[2,3-b]pyridine], for which the IC50 was less than 50 nM, the inhibition at 0.1 µM was 80% and the inhibition at 1 µM worked out at 95%.

Take `CN1CCN(c2ccc(-c3cnc4[nH]cc(-c5cnn(CCc6ccccc6)c5)c4c3)cn2)CC1` [Example 141, 5-(6-(4-methylpiperazin-1-yl)pyridin-3-yl)-3-(1-phenethyl-1H-pyrazol-4-yl)-1H-pyrrolo[2,3-b]pyridine]: the IC50 was less than 50 nM, the inhibition at 0.1 µM amounted to 58% and the inhibition at 1 µM stood at 96%.

As for `OCCN1CCN(c2ccc(-c3cnc4[nH]cc(-c5cnn(Cc6cccc(F)c6)c5)c4c3)cn2)CC1` [Example 142, 2-(4-(5-(3-(1-(3-fluorobenzyl)-1H-pyrazol-4-yl)-1H-pyrrolo[2,3-b]pyridin-5-yl)pyridin-2-yl)piperazin-1-yl)ethanol], the inhibition at 0.1 µM was found to be 94% and the inhibition at 1 µM came out at 100%.

Regarding `C[C@H](O)CN1CCN(c2ccc(-c3cnc4[nH]cc(-c5cnn(CCc6ccccc6)c5)c4c3)cn2)CC1` [Example 143, (S)-1-(4-(5-(3-(1-phenethyl-1H-pyrazol-4-yl)-1H-pyrrolo[2,3-b]pyridin-5-yl)pyridin-2-yl)piperazin-1-yl)propan-2-ol], the inhibition at 0.1 µM stood at 60% and the inhibition at 1 µM turned out to be 98%.

Turning to `COc1nc(N2CCN(C[C@H](C)O)CC2)ccc1-c1cnc2[nH]cc(-c3cnn(Cc4cccc(F)c4)c3)c2c1` [Example 144, (S)-1-(4-(5-(3-(1-(3-fluorobenzyl)-1H-pyrazol-4-yl)-1H-pyrrolo[2,3-b]pyridin-5-yl)-6-methoxypyridin-2-yl)piperazin-1-yl)propan-2-ol], the IC50 was less than 50 nM, the inhibition at 0.1 µM was 76% and the inhibition at 1 µM worked out at 94%.

`Cc1cccc(Cn2cc(-c3c[nH]c4ncc(-c5ccc(N6CCN(C[C@H](C)O)CC6)nc5)cc34)cn2)c1` [Example 145, (S)-1-(4-(5-(3-(1-(3-methylbenzyl)-1H-pyrazol-4-yl)-1H-pyrrolo[2,3-b]pyridin-5-yl)pyridin-2-yl)piperazin-1-yl)propan-2-ol]: the IC50 is less than 50 nM, the inhibition at 0.1 µM came to 83% and the inhibition at 1 µM is 99%.

With `C[C@H](O)CN1CCN(c2ccc(-c3cnc4[nH]cc(-c5cnn(Cc6cccc(F)c6)c5)c4c3)nc2)CC1` [Example 146, (S)-1-(4-(6-(3-(1-(3-fluorobenzyl)-1H-pyrazol-4-yl)-1H-pyrrolo[2,3-b]pyridin-5-yl)pyridin-3-yl)piperazin-1-yl)propan-2-ol], the IC50 was 50 to 250 nM, the inhibition at 0.1 µM stood at 60% and the inhibition at 1 µM amounted to 97%.

`CN(C)CC(=O)N1CCN(c2ccc(-c3cnc4[nH]cc(-c5cnn(Cc6cccc(F)c6)c5)c4c3)cn2)CC1` [Example 147, 2-(dimethylamino)-1-(4-(5-(3-(1-(3-fluorobenzyl)-1H-pyrazol-4-yl)-1H-pyrrolo[2,3-b]pyridin-5-yl)pyridin-2-yl)piperazin-1-yl)ethanone]: the IC50 is less than 50 nM, the inhibition at 0.1 µM came to 99% and the inhibition at 1 µM is 100%.

As to `C[C@H](O)CN1CCN(c2ccc(-c3cnc4[nH]cc(-c5cnn(Cc6ccccc6)c5)c4c3)cn2)CC1` [Example 148, (S)-1-(4-(5-(3-(1-benzyl-1H-pyrazol-4-yl)-1H-pyrrolo[2,3-b]pyridin-5-yl)pyridin-2-yl)piperazin-1-yl)propan-2-ol], the IC50 was less than 50 nM, the inhibition at 0.1 µM worked out at 94% and the inhibition at 1 µM was 100%.

As for `COCCN1CCN(c2ccc(-c3cnc4[nH]cc(-c5cnn(Cc6cccc(F)c6)c5)c4c3)cn2)CC1` [Example 149, 3-(1-(3-fluorobenzyl)-1H-pyrazol-4-yl)-5-(6-(4-(2-methoxyethyl)piperazin-1-yl)pyridin-3-yl)-1H-pyrrolo[2,3-b]pyridine], the IC50 is less than 50 nM, the inhibition at 0.1 µM worked out at 95% and the inhibition at 1 µM came out at 100%.

For the compound `N#CCN1CCN(c2ccc(-c3cnc4[nH]cc(-c5cnn(Cc6cccc(F)c6)c5)c4c3)cn2)CC1` [Example 150, 2-(4-(5-(3-(1-(3-fluorobenzyl)-1H-pyrazol-4-yl)-1H-pyrrolo[2,3-b]pyridin-5-yl)pyridin-2-yl)piperazin-1-yl)acetonitrile], the IC50 is less than 50 nM, the inhibition at 0.1 µM amounted to 92% and the inhibition at 1 µM amounted to 100%.

Take `C[C@H](O)CN1CCN(c2ccc(-c3cnc4[nH]cc(-c5cnn(Cc6cccc(O)c6)c5)c4c3)cn2)CC1` [Example 151, (S)-3-((4-(5-(6-(4-(2-hydroxypropyl)piperazin-1-yl)pyridin-3-yl)-1H-pyrrolo[2,3-b]pyridin-3-yl)-1H-pyrazol-1-yl)methyl)phenol]: the IC50 was less than 50 nM, the inhibition at 0.1 µM was found to be 92% and the inhibition at 1 µM came to 97%.

Take `CC(C)CN1CCN(c2ccc(-c3cnc4[nH]cc(-c5cnn(Cc6cccc(F)c6)c5)c4c3)cn2)CC1` [Example 152, 3-(1-(3-fluorobenzyl)-1H-pyrazol-4-yl)-5-(6-(4-isobutylpiperazin-1-yl)pyridin-3-yl)-1H-pyrrolo[2,3-b]pyridine]: the IC50 is less than 50 nM, the inhibition at 0.1 µM was 80% and the inhibition at 1 µM is 100%.

In the case of `C[C@H](O)CN1CCN(c2ccc(-c3cnc4[nH]cc(-c5cnn(Cc6cccc(Cl)c6)c5)c4c3)cn2)CC1` [Example 153, (S)-1-(4-(5-(3-(1-(3-chlorobenzyl)-1H-pyrazol-4-yl)-1H-pyrrolo[2,3-b]pyridin-5-yl)pyridin-2-yl)piperazin-1-yl)propan-2-ol], the IC50 is less than 50 nM, the inhibition at 0.1 µM came to 93% and the inhibition at 1 µM is 100%.

Turning to `O=C(CO)N1CCN(c2ccc(-c3cnc4[nH]cc(-c5cnn(Cc6cccc(F)c6)c5)c4c3)cn2)CC1` [Example 154, 1-(4-(5-(3-(1-(3-fluorobenzyl)-1H-pyrazol-4-yl)-1H-pyrrolo[2,3-b]pyridin-5-yl)pyridin-2-yl)piperazin-1-yl)-2-hydroxyethanone], the IC50 is less than 50 nM, the inhibition at 0.1 µM worked out at 99% and the inhibition at 1 µM came out at 100%.

For `OC1CCN(c2ccc(-c3cnc4[nH]cc(-c5cnn(Cc6cccc(F)c6)c5)c4c3)cn2)CC1` [Example 155, 1-(5-(3-(1-(3-fluorobenzyl)-1H-pyrazol-4-yl)-1H-pyrrolo[2,3-b]pyridin-5-yl)pyridin-2-yl)piperidin-4-ol], the IC50 is less than 50 nM, the inhibition at 0.1 µM is 86% and the inhibition at 1 µM worked out at 97%.

In the case of `CCS(=O)(=O)N1CCN(c2ccc(-c3cnc4[nH]cc(-c5cnn(Cc6cccc(F)c6)c5)c4c3)cn2)CC1` [Example 156, 5-(6-(4-(ethylsulfonyl)piperazin-1-yl)pyridin-3-yl)-3-(1-(3-fluorobenzyl)-1H-pyrazol-4-yl)-1H-pyrrolo[2,3-b]pyridine], the IC50 was less than 50 nM, the inhibition at 0.1 µM worked out at 69% and the inhibition at 1 µM came to 91%.

For `O=C(C1CC1)N1CCN(c2ccc(-c3cnc4[nH]cc(-c5cnn(Cc6cccc(F)c6)c5)c4c3)cn2)CC1` [Example 157, Cyclopropyl(4-(5-(3-(1-(3-fluorobenzyl)-1H-pyrazol-4-yl)-1H-pyrrolo[2,3-b]pyridin-5-yl)pyridin-2-yl)piperazin-1-yl)methanone], the IC50 was less than 50 nM, the inhibition at 0.1 µM was 77% and the inhibition at 1 µM stood at 93%.

As for `CS(=O)(=O)N1CCN(c2ccc(-c3cnc4[nH]cc(-c5cnn(Cc6cccc(F)c6)c5)c4c3)cn2)CC1` [Example 158, 3-(1-(3-fluorobenzyl)-1H-pyrazol-4-yl)-5-(6-(4-(methylsulfonyl)piperazin-1-yl)pyridin-3-yl)-1H-pyrrolo[2,3-b]pyridine], the concentration for half-maximal inhibition (IC50) was less than 50 nM, the inhibition at 0.1 µM was 85% and the inhibition at 1 µM was 94%.
